# How the values were obtained:
# [1] = biological target: T1, Palmitoleoyl-protein carboxylesterase NOTUM (Homo sapiens, UniProt Q6P988); assay: Binding affinity to glycosylated Notum 1 (unknown origin) assessed as maximum change in melting temperature at 1 mM by SYPRO orange dye based thermal shift assay; settings: 1000 µM
# T1 sequence (Q6P988 whole entry): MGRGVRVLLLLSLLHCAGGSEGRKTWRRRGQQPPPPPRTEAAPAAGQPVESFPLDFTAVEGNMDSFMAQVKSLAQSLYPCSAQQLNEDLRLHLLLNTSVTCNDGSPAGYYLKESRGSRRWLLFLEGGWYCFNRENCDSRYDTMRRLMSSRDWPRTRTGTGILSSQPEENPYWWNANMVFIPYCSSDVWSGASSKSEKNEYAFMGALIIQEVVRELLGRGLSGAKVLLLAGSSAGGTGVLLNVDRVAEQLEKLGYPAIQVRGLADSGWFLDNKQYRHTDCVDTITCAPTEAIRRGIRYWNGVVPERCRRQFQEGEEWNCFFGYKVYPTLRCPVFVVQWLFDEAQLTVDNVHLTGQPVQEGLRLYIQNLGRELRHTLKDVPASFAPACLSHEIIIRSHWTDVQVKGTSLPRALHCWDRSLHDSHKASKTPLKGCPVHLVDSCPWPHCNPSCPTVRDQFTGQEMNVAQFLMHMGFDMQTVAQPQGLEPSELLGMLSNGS
# [2] = biological target: T1, Palmitoleoyl-protein carboxylesterase NOTUM; assay: Binding affinity to glycosylated Notum 1 (unknown origin) assessed as change in melting temperature at 30 uM by SYPRO orange dye based thermal shift assay
# [3] = biological target: T1, Palmitoleoyl-protein carboxylesterase NOTUM; assay: Inhibition of Notum 1 (unknown origin) expressed in HEK293 cells harbouring TCF/LEF luciferase reporter gene assessed as modulation of Wnt/beta-catenin signalling pathway preincubated with recombinant Wnt-3A for 1 hr followed by addition to reporter cell plate incubated overnight by luminescence based microplate reader analysis
# [4] = biological target: T1, Palmitoleoyl-protein carboxylesterase NOTUM; assay: Binding affinity to glycosylated Notum 1 (unknown origin) assessed as change in melting temperature at 8 uM by SYPRO orange dye based thermal shift assay
SMILES,deltaTm [1],deltaTm [2],EC50 [3],deltaTm [4]
O=C(O)CCC(=O)N1CCc2ccccc21,2.5 °C,1 °C,–,–
O=C(CCC(=O)N1CCc2ccccc21)OCC(F)F,–,–,300 nM,–
COC(=O)CCC(=O)N1CCc2ccccc21,10 °C,5 °C,–,2 °C

# — ChEMBL document CHEMBL5029153, “Structural Insights into Notum Covalent Inhibition” (J Med Chem, 2021)
